The record followed here is PubChem BioAssay (NCI).

“And” between values parts separate entries of the source, which are not always exact repeats. Equal entries are not always repeated.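 Assay format: 96-well plates, 48-hour exposure. Abbreviation: GI50, concentration required for 50% inhibition of growth. The concentration for full growth arrest is given as TGI.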

Some test systems named below: CAKI-1 renal; MOLT-4 leukemia; UACC-62 melanoma; SK-OV-3 ovarian; EKVX NSCLC; OVCAR-3 ovarian; KM12 colon; HT29 colon; SN12C renal; RXF 393 renal.
What all share (experiment): NCI tumour cell line growth inhibition, 48 h

With `O=C(O)COc1ccc(C(=O)/C(SS/C(C(=O)c2ccc(OCC(=O)O)c(Cl)c2Cl)=C2\C=C(c3ccc(Cl)cc3)SS2)=C2/C=C(c3ccc(Cl)cc3)SS2)c(Cl)c1Cl`, the TGI with CAKI-1 renal was > 100 µM; in the assay on MOLT-4 leukemia, 12.6 µM; in the assay with UACC-62 melanoma, 25.7 µM; with SK-OV-3 ovarian, > 100 µM; in the assay on EKVX NSCLC, > 100 µM; in the assay on OVCAR-3 ovarian, 26.6 µM. In addition, the TGI was 54.6 µM in the assay with KM12 colon, > 100 µM with HT29 colon and 1.79 µM in the assay with SN12C renal.

For `COc1cc2c(cc1OC)CC(=O)Nc1cc(OC)c(OC)cc1CC2`, the TGI in the assay on CAKI-1 renal, with MOLT-4 leukemia, in the assay with UACC-62 melanoma, in the assay on SK-OV-3 ovarian, in the assay with EKVX NSCLC and in the assay with OVCAR-3 ovarian was > 100 µM each time. In addition, the TGI with KM12 colon, in the assay on HT29 colon and in the assay with SN12C renal was > 100 µM each time.

Turning to `CC[C@@]1(O)C(=O)OCc2c1cc1n(c2=O)Cc2cc3cccc([N+](=O)[O-])c3nc2-1`, the GI50 in the assay with UACC-62 melanoma is 0.299 µM; in the assay with SK-OV-3 ovarian it was 0.501 µM; in the assay with EKVX NSCLC, 96.9 µM; with OVCAR-3 ovarian, 4.92 µM; with KM12 colon it was 4.82 µM; with HT29 colon, 2.18 µM. In addition, the GI50 with SN12C renal was 0.382 µM; in the assay on RXF 393 renal, 1.83 µM. Moreover, the TGI with UACC-62 melanoma was 1.28 µM; with SK-OV-3 ovarian, 17.1 µM; with EKVX NSCLC it was > 100 µM; with OVCAR-3 ovarian, 43.5 µM; with KM12 colon, 35.6 µM; in the assay with HT29 colon, > 100 µM. In addition, the TGI in the assay on SN12C renal amounted to 5.01 µM; with RXF 393 renal it was 7.18 µM.

Regarding `CC(N)(/C=C/c1ccccc1)C(=O)O` (stereo not drawn), the TGI with CAKI-1 renal, in the assay on MOLT-4 leukemia, with UACC-62 melanoma, in the assay with SK-OV-3 ovarian, with EKVX NSCLC and in the assay with OVCAR-3 ovarian was > 100 µM each time. Also, the TGI in the assay with KM12 colon, in the assay with HT29 colon and in the assay on SN12C renal was > 100 µM in each case.

As for `COc1ccc(NC(=O)CC/C(CC(=O)c2ccco2)=N/NC(N)=S)cc1`, the TGI with CAKI-1 renal, in the assay with MOLT-4 leukemia, in the assay with UACC-62 melanoma, in the assay on SK-OV-3 ovarian, with EKVX NSCLC and with OVCAR-3 ovarian was > 100 µM each time. Also, the TGI in the assay with KM12 colon, with HT29 colon and in the assay on SN12C renal was > 100 µM each time.

Consider `O=c1c2ccccc2nc(/C=C(\O)c2ccncc2)n1-c1ccc(Cl)cc1`, for which the TGI in the assay on CAKI-1 renal, in the assay with MOLT-4 leukemia, in the assay on UACC-62 melanoma, in the assay with SK-OV-3 ovarian, in the assay on EKVX NSCLC and with OVCAR-3 ovarian was > 100 µM each time. The TGI in the assay with KM12 colon, in the assay with HT29 colon and with SN12C renal was > 100 µM throughout.

With `COC(=O)c1ccccc1N1C(=O)Cc2ccccc2C1=O`, the TGI in the assay with MOLT-4 leukemia, in the assay on UACC-62 melanoma, in the assay with SK-OV-3 ovarian, with EKVX NSCLC, in the assay with OVCAR-3 ovarian and in the assay with KM12 colon was > 100 µM throughout. Besides, the TGI with HT29 colon, in the assay with SN12C renal and in the assay with RXF 393 renal was > 100 µM throughout.

As for `O=C(NC(=O)c1ccccc1[N+](=O)[O-])Nc1ccc(Oc2ncc(Cl)cn2)c([N+](=O)[O-])c1`, the TGI in the assay with CAKI-1 renal is > 100 µM; in the assay with MOLT-4 leukemia, > 100 µM; in the assay on UACC-62 melanoma it was > 100 µM; with SK-OV-3 ovarian it was > 69.3 µM; in the assay with EKVX NSCLC, > 100 µM; in the assay with OVCAR-3 ovarian it was > 7.67 µM. The TGI with KM12 colon is > 66.3 µM; in the assay with HT29 colon, 3.31 µM; in the assay with SN12C renal, > 100 µM.

Turning to `COc1cc(O)c2c(c1)O[C@@H]1OCC[C@H]21`, the TGI in the assay with MOLT-4 leukemia, in the assay on UACC-62 melanoma, in the assay on SK-OV-3 ovarian, in the assay with EKVX NSCLC, in the assay with OVCAR-3 ovarian and with KM12 colon was > 100 µM each time. For the same molecule, the TGI in the assay on HT29 colon and in the assay with SN12C renal was > 100 µM throughout.

For `COc1cc2c(c(OC)c1OC)-c1ccc(OC)c(=O)cc1[C@@H](NC(C)=O)CC2`, the GI50 was < 0.01 µM and 0.0352 µM and 0.0625 µM in the assay on MOLT-4 leukemia; 16.7 µM with EKVX NSCLC. Also, the TGI was > 100 µM and > 77.4 µM and 91.7 µM in the assay on UACC-62 melanoma; > 625 µM in the assay on EKVX NSCLC; > 100 µM and > 93.4 µM and 131 µM in the assay on SN12C renal.

With `CC1(Br)CC2OC3(Br)C=CC(C)(O)C2(CC1=O)C3(C)C` (stereo not drawn), the TGI in the assay with CAKI-1 renal, with MOLT-4 leukemia, in the assay with UACC-62 melanoma, in the assay on SK-OV-3 ovarian, with EKVX NSCLC and in the assay with OVCAR-3 ovarian was > 100 µM each time. The TGI in the assay with KM12 colon, in the assay on HT29 colon and with SN12C renal was > 100 µM in each case.

As to `CCOC(=O)Cc1csc(Nc2ccc(OCC)cc2)n1`, the TGI in the assay on MOLT-4 leukemia, in the assay with EKVX NSCLC, in the assay with OVCAR-3 ovarian, in the assay with KM12 colon, with HT29 colon and in the assay with SN12C renal was > 100 µM throughout. Besides, in the assay with RXF 393 renal, the TGI is > 100 µM.
